Reference: patent US3947411A, “Novel 1-aryl-2-arylalkyl-3-or-4-[4'-(substituted-alkyl)piperazino-1']butanols- 2-or-butenes-1, and methods of manufacture thereof” (Warner-Lambert Company, priority 1972, dated 1976)
Converted amounts (≈) assume the structure as drawn.

Columns and labels:
[1] = Solubility in water; format: physicochemical; conditions: hydrochlorides or oxalates, read-out: solubilities (in water)
Procedure: The following list contains examples of those compounds which are made according to the methods disclosed. (The individual compounds are identified by elementary analyses and infrared spectra, by ultra-violet or nuclear resonance spectra, if necessary.) Individual melting points and solubilities (in water) are also given as is the method by which each compound is prepared.
The melting points and solubilities are given for the Hydrochlorides I - XVI; XVIII - XXVII; XXIX - XXXV; XXXVII - XLII; XLIV - LXII; LXIV - LXVII, and the Oxalates XVII; […]; XXXVI; LXIII.

[2] = test system: A. niger; test: Minimum inhibitory concentration for fungi in presence of serum, A. niger (Table VI); format: cell-based; conditions: Aspergillus niger; Sabouraud nutrient broth + 10% bovine serum, 28°C, 48 hours
[3] = test system: Candida albicans; test: Agar well inhibition zone test against fungi, Candida albicans (Table II); conditions: quantity per well giving inhibition zone (500, 50, 5 μg tested); Sabouraud agar, 28°, 48 hours
Procedure: (§1) The efficacy of the compounds against fungi was tested as follows:
(§2) The test organisms, in this case the blastomycete Candida albicans and the mold Aspergillus niger, were inoculated onto Sabouraud agar plates by pouring a photometrically adjusted standard suspension of organisms on the plate. After inoculation, wells with a diameter of 5.0 mm were punched in the agar, and filled with 50 ul of the compound solution mentioned before. The quantity of compound applied thus amounted to 500 μg, 50 μg and 5 μg. After incubation at 28° for 48 hours, the quantity of compound was determined at which an inhibition of the organism's growth, in form of an inhibition zone around the corresponding well, was present.

[4] = test system: Aspergillus niger; test: Agar well inhibition zone test against fungi, Aspergillus niger (Table II); conditions: quantity per well giving inhibition zone (500, 50, 5 μg tested); Sabouraud agar, 28°, 48 hours
Procedure: as §1, §2

[5] = test system: Escherichia coli; test: Agar well inhibition zone test against bacteria, Escherichia coli (Table III); conditions: quantity per well giving inhibition zone (500, 50, 5 μg tested); nutrient agar, 37°, 24 hours
Procedure: The efficacy of the compounds against bacteria was tested as follows:
The test organisms, in this case Staphylococcus aureus and Escherichia coli, were inoculated on nutrient agar as described in Example 12, wells were punched, and the solutions of the compounds were transferred to fill the wells. The quantity of compound in the wells amounted again to 500 μg, 50 μg and 5 μg.
After incubation a 37° for 24 hours the quantity of compound was determined at which an inhibition of the organism's growth, in the form of an inhibition zone around the corresponding well, occurred.

[6] = test system: A. niger; test: Minimum inhibitory concentration for fungi, tube dilution, A. niger (Table IV); conditions: Aspergillus niger, 48 h, read-out: Minimum Inhibitory Concentration, A. niger
Procedure: (§3) A tube dilution series of the respective compound in Sabouraud nutrient broth, whose individual tubes contained concentrations of 1024 μg, 512 μg, 256 μg, 128 μg, 64 μg, 32 μg, 16 μg, 8 μg, 4 μg, 2 μg, 1.1 μg and 0.5 μg/ml, was prepared and inoculated with a photometrically standardized suspension of the test organisms or the spores thereof.

[7] = test system: Staphylococcus aureus; test: Agar well inhibition zone test against bacteria, Staphylococcus aureus (Table III); conditions: quantity per well giving inhibition zone (500, 50, 5 μg tested); nutrient agar, 37°, 24 hours
[8] = test system: Staph. aureus; test: Minimum inhibitory concentration for bacteria, tube dilution, Staph. aureus (Table V); conditions: Staphylococcus aureus, 48 h, read-out: Minimum Inhibitory Concentration, Staph. aureus
Procedure: A tube dilution series of the respective compound in nutrient broth whose individual tubes contained concentrations of 1024 μg, 512 μg, 256 μg, 128 μg, 64 μg, 32 μg, 1 μg, 8 μg, 4 μg, 2 μg, 1.1 μg and 0.5 μg/ml was prepared and inoculated with a photometrically standardized suspension of the test organisms.

[9] = test system: C. albicans; test: Minimum inhibitory concentration for fungi in presence of serum, C. albicans (Table VI); format: cell-based; conditions: Candida albicans; Sabouraud nutrient broth + 10% bovine serum, 28°C, 48 hours
[10] = test system: C. albicans; test: Minimum inhibitory concentration for fungi, tube dilution, C. albicans (Table IV); conditions: Candida albicans, 48 h, read-out: Minimum Inhibitory Concentration, C. albicans
Procedure: as §3

Structure (SMILES)	solubility [1] [mg/mL]	MIC [2] [µg/mL]	Inhibition Area at μg, Cand. albicans [3] [µg]	Inhibition Area at μg, Asp. niger [4] [µg]	Inhibition Area at μg, E. coli [5] [µg]	MIC [6] [µg/mL]	Inhibition Area at μg, Staph. aureus [7] [µg]	MIC [8] [µg/mL]	MIC [9] [µg/mL]	MIC [10] [µg/mL]
OC(Cc1ccccc1)(Cc1ccccc1)CN1CCN(CCN2CCCCC2)CC1 [LIX, β,β '-diphenyl-β"-[4'-(β-piperidino-ethyl)-piperazino-1']-t-butanol]	100 (≈ 237000 µM)	64	500	5	500	64 (≈ 152 µM)	50	1020 (≈ 2430 µM)		
OC(CCN1CCN(CCN2CCCCC2)CC1)(Cc1ccccc1)Cc1ccccc1 [LX, 1-phenyl-2-benzyl-4-[4'-(β-piperidinoethyl)-piperazino-1']-butanol-2]	100 (≈ 230000 µM)	8	500	50	500	64 (≈ 147 µM)	500			
CN1CCN(CCCCCCN2CCN(CCC(=Cc3ccccc3)Cc3ccccc3)CC2)CC1 [LXV, 1-phenyl-2-benzyl-4-[4'-w-(4"-methyl-piperazino-1")-n-hexyl-piperazino-1']-butene-1]	100 (≈ 205000 µM)	8	5	5	500	8 (≈ 16.4 µM)	500		32	32 (≈ 65.5 µM)
CC(C(=Cc1ccccc1)Cc1ccccc1)N1CC[N+]2(CCCCCC2)CC1 (stereo not shown) [LXVII, hexahydro-azepinium-1-spiro-1'-piperazinium-4'-(3-benzyl-4-phenyl-but-3-en-2-yl)-chloride]	10	128	50	50	500	128	50	8	64	128
CC(N1CCN(CCN2CCN(C)CC2)CC1)C(O)(Cc1ccccc1)Cc1ccccc1 (stereo not drawn) [X, 1-phenyl-2-benzyl-3-{4'-[β-(4"-methyl-piperazino-1")-ehtyl]-piperazino-1'}-butanol-2]	100 (≈ 222000 µM)	16	50	50	500	16 (≈ 35.5 µM)	500		16	16 (≈ 35.5 µM)
CC(c1ccccc1)N1CCN(CCN2CCN(C(C)C(O)(Cc3ccccc3)Cc3ccccc3)CC2)CC1 (stereo not drawn) [XIII, 1-phenyl-2-benzyl-3-{4'-[β-(4"-α-phenethyl-piperazino-1")-ethyl]-piperazino-1'}-butanol-2]	100 (≈ 185000 µM)	256	500	500	500		5	32 (≈ 59.2 µM)	513	
CC(N1CCN(CCN2CCN(CCc3ccccc3)CC2)CC1)C(O)(Cc1ccccc1)Cc1ccccc1 (stereo not drawn) [XIV, 1-phenyl-2-benzyl-3-{4'-[β-(4"-β-phenethyl-piperazino-1")-ethyl]-piperazino-1'}-butanol-2]	100 (≈ 185000 µM)	64	50	50	500	16 (≈ 29.6 µM)	50	32 (≈ 59.2 µM)	128	32 (≈ 59.2 µM)
CC(N1CCN(CCCCCCN2CCCCC2)CC1)C(O)(Cc1ccccc1)Cc1ccccc1 (stereo not shown) [XX, 1-phenyl-2-benzyl-3-[4'-(w-piperidino-n-hexyl)-piperazino-1']-butanol-2]	100 (≈ 203000 µM)	8	50	5	500	4 (≈ 8.13 µM)	50	128 (≈ 260 µM)	128	64 (≈ 130 µM)
Cc1cccc(CC(O)(Cc2cccc(C)c2)C(C)N2CCN(CCN3CCCCC3)CC2)c1 (stereo not drawn) [XXI, 1-m-tolyl-2-m-methylbenzyl-3-[4'-(β-piperidino-ethyl)-piperazino-1']-butanol-2]	100 (≈ 216000 µM)	128	50	5	> 500	4 (≈ 8.63 µM)	5	64 (≈ 138 µM)	256	8 (≈ 17.3 µM)
CC(N1CCN(Cc2ccncc2)CC1)C(O)(Cc1ccccc1)Cc1ccccc1 (stereo not shown) [XXIV, 1-phenyl-2-benzyl-3-[4'-(4"-pyridylmethyl)-piperazino-1']-butanol-2]	100 (≈ 241000 µM)	128	> 500	> 500	> 500		> 500		128	
CC(C(=Cc1ccccc1)Cc1ccccc1)N1CCN(CCN(C(C)C)C(C)C)CC1 (stereo not drawn) [XXVIII, 1-phenyl-2-benzyl-3-[4'-(β-diisopropylamino-ethyl)-piperazino-1']-butene-1]	10 (≈ 23100 µM)	> 1020	50	50	500	32 (≈ 73.8 µM)	50	64 (≈ 148 µM)	256	64 (≈ 148 µM)
CC(C(=Cc1ccccc1)Cc1ccccc1)N1CCN(CCN2CCN(C)CC2)CC1 (stereo not drawn) [XXXVI, 1-phenyl-2-benzyl-3-{4'-[β-(4"-methylpiperazino-1")-ethyl]-piperazino-1'}-butene-1]	< 10	8	50	50	> 500	2 (≈ 4.62 µM)	500		32	4 (≈ 9.25 µM)
CC(C(=Cc1ccccc1)Cc1ccccc1)N1CCN(CCN2CCN(Cc3ccccc3)CC2)CC1 (stereo not drawn) [XXXVII, 1-phenyl-2-benzyl-3-{4'-[β-(4"-benzylpiperazino-1")-ethyl]-piperazino-1'}-butene-1]	50 (≈ 98300 µM)		5	5	500	128 (≈ 252 µM)	5	16 (≈ 31.4 µM)	512	8 (≈ 15.7 µM)
CC(C(=Cc1ccccc1)Cc1ccccc1)N1CCN(CCN2CCN(C(C)c3ccccc3)CC2)CC1 (stereo not drawn) [XXXVIII, 1-phenyl-2-benzyl-3-{4'-[β-(4"-α-phenethyl-piperazino-1")-ethyl]-piperazino-1'}-butene-1]	100 (≈ 191000 µM)	> 1020	500	500	500		5	128 (≈ 245 µM)	> 1020	
